# According to patent US20250304644A1, “PEPTIDES TRIPLE AGONISTS OF GIP, GLP-1 AND GLP-2” (BAINAN BIOTECH APS, priority 2021, published 2025):
# Where a SMILES comes first, the peptide text is derived from it. [ ]: non-standard residue; d: D form. The star is where a group is joined. Decanoyl = CCCCCCCCCC(=O)*; Aib = CC(C)(N)C(=O)O
# How the values were obtained:
# human GIPR = target: T1, human GIPR (Homo sapiens, UniProt P48546); assay: cAMP assay (HitHunter) in transiently transfected COS-7 cells expressing human GIPR; assay type: cell-based; conditions: for Emax: COS-7, normalized to highest concentration of the endogenous ligand, read-out: Efficacy GIPR (Emax); for EC50: cAMP, COS-7 cells, human GIPR
# T1 construct: host or cells: COS-7
# T1 sequence (P48546 22-466): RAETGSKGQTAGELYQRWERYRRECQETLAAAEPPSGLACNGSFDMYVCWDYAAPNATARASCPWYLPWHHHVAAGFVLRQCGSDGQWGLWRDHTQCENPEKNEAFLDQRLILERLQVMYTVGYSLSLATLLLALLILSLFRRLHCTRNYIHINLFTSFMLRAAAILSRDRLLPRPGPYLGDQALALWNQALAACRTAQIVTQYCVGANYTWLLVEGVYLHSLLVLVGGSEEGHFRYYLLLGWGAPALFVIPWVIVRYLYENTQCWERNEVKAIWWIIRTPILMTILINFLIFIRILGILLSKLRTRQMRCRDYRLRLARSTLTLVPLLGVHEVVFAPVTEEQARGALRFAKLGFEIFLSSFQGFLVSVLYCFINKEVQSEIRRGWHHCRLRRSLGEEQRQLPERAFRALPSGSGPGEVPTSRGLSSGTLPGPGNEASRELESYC
# Protocol: (§1) The next day the assay was initiated by washing with HEPES buffered saline (HBS) and followed by an incubation step with assay buffer (HBS added 1 mM isobutyl-1-methylxanthine (IBMX)) for 30 min at 37° C. The ligands were then added and incubated for an additional 30 min at 37° C. After ligand incubation, the HitHunter® CAMP assay (Eurofins DiscoverX, Fremont, […] USA) was carried out according to the manufacturer's instructions. […] The potencies (EC50 values) were determined by nonlinear regression using GraphPad Prism 9 (San Diego, California, USA). Sigmoid curves were fitted logistically. The efficacies (Emax values) were determined by normalization to the highest concentration applied of the endogenous ligand for each receptor.
# human GLP-1R = target: T2, human GLP-1R (Homo sapiens, UniProt P43220); assay: cAMP assay (HitHunter) in transiently transfected COS-7 cells expressing human GLP-1R; assay type: cell-based; conditions: COS-7; normalized to highest concentration of the endogenous ligand; read-out: Efficacy GLP-1R (Emax)
# T2 construct: host or cells: COS-7
# Protocol: as §1
# T2 sequence (P43220 24-463): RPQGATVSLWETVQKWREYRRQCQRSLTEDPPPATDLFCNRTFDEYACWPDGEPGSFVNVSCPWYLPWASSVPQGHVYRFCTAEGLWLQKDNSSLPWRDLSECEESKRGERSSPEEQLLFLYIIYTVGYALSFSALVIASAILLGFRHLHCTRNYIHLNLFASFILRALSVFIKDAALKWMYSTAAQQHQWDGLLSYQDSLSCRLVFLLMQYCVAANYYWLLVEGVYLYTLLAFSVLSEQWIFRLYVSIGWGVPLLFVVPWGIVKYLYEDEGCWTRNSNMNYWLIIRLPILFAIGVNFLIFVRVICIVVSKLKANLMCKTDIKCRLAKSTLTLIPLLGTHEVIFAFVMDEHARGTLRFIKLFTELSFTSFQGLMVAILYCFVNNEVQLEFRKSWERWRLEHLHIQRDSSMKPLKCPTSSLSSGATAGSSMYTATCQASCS
Emax (human GIPR) [%],EC50 (human GIPR) [nM],Emax (human GLP-1R) [%],Structure (SMILES)
98,0.794,90,CCCCCCCCCC(=O)NCCCC[C@H](NC(=O)[C@@H](NC(=O)[C@@H](NC(=O)[C@H](CCCCN)NC(=O)[C@@H](NC(=O)[C@H](CCC(N)=O)NC(=O)[C@@H](NC(=O)[C@H](CC(C)C)NC(=O)[C@H](Cc1c[nH]c2ccccc12)NC(=O)[C@H](CC(N)=O)NC(=O)[C@@H](NC(=O)[C@H](Cc1ccccc1)NC(=O)[C@H](CC(=O)O)NC(=O)[C@H](CCCNC(=N)N)NC(=O)[C@H](C)NC(=O)[C@H](C)NC(=O)[C@@H](NC(=O)[C@H](CC(N)=O)NC(=O)[C@H](CC(=O)O)NC(=O)[C@H](CC(C)C)NC(=O)[C@@H](NC(=O)[C@@H](NC(=O)[C@H](CO)NC(=O)[C@H](Cc1ccc(O)cc1)NC(=O)[C@H](CC(=O)O)NC(=O)[C@H](CO)NC(=O)[C@@H](NC(=O)[C@H](Cc1ccccc1)NC(=O)[C@@H](NC(=O)CNC(=O)[C@H](CC(=O)O)NC(=O)C(C)(C)NC(=O)[C@@H](N)Cc1c[nH]cn1)[C@@H](C)O)[C@@H](C)CC)[C@@H](C)O)[C@@H](C)CC)[C@@H](C)CC)[C@@H](C)CC)[C@@H](C)CC)[C@@H](C)O)[C@@H](C)CC)[C@@H](C)O)C(N)=O [Compound 15] (H-H[Aib]DGTFISDYSTILDNIAARDFINWLIQTKITK(Decanoyl)-NH2; N-terminus assumed)
99,1.12,98,CCCCCCCCCC(=O)NCCCC[C@H](NC(=O)[C@@H](NC(=O)[C@@H](NC(=O)[C@H](CCCCN)NC(=O)[C@@H](NC(=O)[C@H](CCC(N)=O)NC(=O)[C@@H](NC(=O)[C@H](CC(C)C)NC(=O)[C@H](Cc1c[nH]c2ccccc12)NC(=O)[C@H](CC(N)=O)NC(=O)[C@@H](NC(=O)[C@H](Cc1ccccc1)NC(=O)[C@H](CCC(=O)O)NC(=O)[C@H](CCCNC(=N)N)NC(=O)[C@H](C)NC(=O)[C@H](C)NC(=O)[C@H](CC(C)C)NC(=O)[C@H](CC(N)=O)NC(=O)[C@H](CC(=O)O)NC(=O)[C@H](CC(C)C)NC(=O)[C@@H](NC(=O)[C@@H](NC(=O)[C@H](CO)NC(=O)[C@H](Cc1ccc(O)cc1)NC(=O)[C@H](CC(=O)O)NC(=O)[C@H](CO)NC(=O)[C@@H](NC(=O)[C@H](Cc1ccccc1)NC(=O)[C@@H](NC(=O)CNC(=O)[C@H](CC(=O)O)NC(=O)C(C)(C)NC(=O)[C@@H](N)Cc1c[nH]cn1)[C@@H](C)O)[C@@H](C)CC)[C@@H](C)O)[C@@H](C)CC)[C@@H](C)CC)[C@@H](C)CC)[C@@H](C)O)[C@@H](C)CC)[C@@H](C)O)C(N)=O [Compound 8] (H-H[Aib]DGTFISDYSTILDNLAAREFINWLIQTKITK(Decanoyl)-NH2; N-terminus assumed)
